# Results: ChEMBL document CHEMBL1201862, “PubChem BioAssay data set” (2004)
# Active and inactive are the calls of the source.
# Assays:
# [1] = Luminescence Cell-Based Dose Confirmation HTS to Identify Activators of 5'UTR Stem-Loop Driven Alpha-Synuclein mRNA Translation in H4 Neuroglioblastoma Cells. [Related pubchem assays: 1829 (Project Summary), 1814 (Primary HTS)]; type: functional
# [2] = Luminescence Cell-Based Dose Response HTS to Identify Activators of Luciferase Translation or Activity in H4 […] Cells. [Related pubchem assays: 1829 (Project Summary), 1814 (Primary HTS)]; type: functional
# [3] = test system: H4; experiment: Luminescence Cell-Based Dose Response HTS to Identify Activators of 5'UTR Stem-Loop Driven Prion Protein mRNA Translation in H4 Neuroglioblastoma Cells. [Related pubchem assays: 1829 (Project Summary), 1814 (Primary HTS)]; type: functional; settings: Homo sapiens
# [4] = molecular target: T1, Replicative DNA helicase DnaB (Mycobacterium tuberculosis, UniProt P9WMR3); experiment: DnaB intein splicing inhibitors, dose response, biochemical, cell-free fluorescence (AID 449749); type: functional
# T1 sequence (P9WMR3 whole entry): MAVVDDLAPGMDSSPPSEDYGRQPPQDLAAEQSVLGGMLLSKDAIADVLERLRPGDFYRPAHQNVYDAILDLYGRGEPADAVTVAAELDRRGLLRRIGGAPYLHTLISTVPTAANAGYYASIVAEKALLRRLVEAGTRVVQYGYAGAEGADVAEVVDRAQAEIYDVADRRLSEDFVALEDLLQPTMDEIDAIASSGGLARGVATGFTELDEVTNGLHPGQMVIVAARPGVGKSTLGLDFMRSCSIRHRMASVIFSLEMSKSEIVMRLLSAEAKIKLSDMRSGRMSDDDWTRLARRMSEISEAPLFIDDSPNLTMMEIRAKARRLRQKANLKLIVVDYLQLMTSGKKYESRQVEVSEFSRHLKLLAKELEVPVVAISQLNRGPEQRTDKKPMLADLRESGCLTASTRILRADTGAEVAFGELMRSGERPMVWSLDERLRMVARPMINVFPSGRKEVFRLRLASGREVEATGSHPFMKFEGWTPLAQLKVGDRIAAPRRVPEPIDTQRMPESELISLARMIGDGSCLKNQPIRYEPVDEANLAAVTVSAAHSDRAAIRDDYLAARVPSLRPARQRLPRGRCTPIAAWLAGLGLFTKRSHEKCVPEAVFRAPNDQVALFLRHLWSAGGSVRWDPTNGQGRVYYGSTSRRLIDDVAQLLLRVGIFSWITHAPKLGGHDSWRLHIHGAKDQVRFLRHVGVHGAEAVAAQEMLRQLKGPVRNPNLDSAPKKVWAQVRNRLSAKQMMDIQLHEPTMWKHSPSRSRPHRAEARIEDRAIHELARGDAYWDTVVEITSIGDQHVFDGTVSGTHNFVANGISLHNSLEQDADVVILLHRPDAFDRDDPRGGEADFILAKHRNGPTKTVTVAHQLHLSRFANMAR
# [5] = molecular target: T2, Protein RecA (Mycobacterium tuberculosis, UniProt P9WHJ3); experiment: Fluorescence Cell-Free Homogeneous Dose Retest to Identify Inhibitors of RecA-Intein Splicing Activity. [Related pubchem assays (depositor defined):AID2097, AID2223, AID489010, AID492950]; type: functional
# T2 sequence (P9WHJ3 whole entry): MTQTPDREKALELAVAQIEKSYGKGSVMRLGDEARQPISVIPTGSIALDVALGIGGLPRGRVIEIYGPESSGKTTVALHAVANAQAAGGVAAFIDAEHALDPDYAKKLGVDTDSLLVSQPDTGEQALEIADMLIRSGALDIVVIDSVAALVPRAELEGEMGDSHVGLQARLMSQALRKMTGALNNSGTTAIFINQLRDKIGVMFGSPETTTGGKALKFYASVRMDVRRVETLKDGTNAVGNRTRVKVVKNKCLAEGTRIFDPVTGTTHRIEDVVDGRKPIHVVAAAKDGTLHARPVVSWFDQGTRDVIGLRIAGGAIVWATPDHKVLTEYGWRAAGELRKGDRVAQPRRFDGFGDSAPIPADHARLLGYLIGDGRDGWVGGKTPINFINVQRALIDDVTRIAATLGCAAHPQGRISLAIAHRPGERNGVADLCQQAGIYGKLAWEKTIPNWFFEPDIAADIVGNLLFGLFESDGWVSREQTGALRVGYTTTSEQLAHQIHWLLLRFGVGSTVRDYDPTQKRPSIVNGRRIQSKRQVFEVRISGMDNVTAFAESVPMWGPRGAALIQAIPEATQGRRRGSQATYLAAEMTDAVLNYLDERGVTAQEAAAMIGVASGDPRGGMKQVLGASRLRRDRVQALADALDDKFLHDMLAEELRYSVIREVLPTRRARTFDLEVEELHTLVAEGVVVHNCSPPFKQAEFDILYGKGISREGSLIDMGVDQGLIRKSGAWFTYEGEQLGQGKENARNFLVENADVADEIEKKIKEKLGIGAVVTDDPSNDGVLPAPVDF
# [6] = viability of uninfected HEp-2 cells – cell-based, HTS, cytotoxicity control for RSV inhibitor project, dose response (AID 2410); type: functional; settings: human respiratory syncytial virus
# [7] = molecular target: T3, Rac GTPase-activating protein 1 (Homo sapiens, UniProt Q9H0H5); experiment: blockers of MgcRacGAP-driven Rac1 GTP hydrolysis – biochemical, ADP Hunter fluorescence, primary and confirmatory, confirmation (AID 624330); type: functional
# T3 sequence (Q9H0H5 whole entry): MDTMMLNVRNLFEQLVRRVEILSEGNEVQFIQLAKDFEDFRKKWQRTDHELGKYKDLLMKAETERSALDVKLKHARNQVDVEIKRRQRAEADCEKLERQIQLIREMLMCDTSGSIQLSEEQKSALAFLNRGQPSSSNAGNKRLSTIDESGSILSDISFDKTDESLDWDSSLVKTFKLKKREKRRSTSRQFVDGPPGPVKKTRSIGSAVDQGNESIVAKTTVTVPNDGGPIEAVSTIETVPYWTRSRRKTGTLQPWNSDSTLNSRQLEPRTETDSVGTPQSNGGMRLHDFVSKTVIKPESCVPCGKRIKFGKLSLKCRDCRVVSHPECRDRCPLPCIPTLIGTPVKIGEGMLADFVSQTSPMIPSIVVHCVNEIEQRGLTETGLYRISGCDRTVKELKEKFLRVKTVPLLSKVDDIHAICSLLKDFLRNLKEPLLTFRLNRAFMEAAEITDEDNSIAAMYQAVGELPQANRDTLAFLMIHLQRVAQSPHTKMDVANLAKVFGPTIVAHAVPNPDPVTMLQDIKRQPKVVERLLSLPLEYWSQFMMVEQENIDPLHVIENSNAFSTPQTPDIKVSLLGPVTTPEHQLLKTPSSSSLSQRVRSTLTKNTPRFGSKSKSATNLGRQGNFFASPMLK
# [8] = Luminescence Cell-Based Dose Retest to Confirm Inhibitors of Cancer Stem Cells. [Related pubchem assays (depositor defined):AID2717, AID2721]; type: functional; settings: Homo sapiens
# [9] = microbe, parasite or virus in culture; type: functional; settings: Mycobacterium tuberculosis
# [10] = test system: H9c2; experiment: cells; type: functional, cell-based; settings: Rattus norvegicus, H9c2, Myocardium;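 further: confirmatory concentration-response retest of ultra-high-throughput screening hits for modulation of myocardial damage; cell death induced by hydrogen peroxide oxidative stress; compound pretreatment for 60 min then peroxide exposure for 2 h; potency is for protecting the cells against peroxide damage rather than for killing them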
# [11] = Trypanosoma cruzi growth suppression in host cells – NIH3T3 host cells, beta-gal luminescence, confirmation (AID 2044); type: functional, cell-based;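 further: intracellular parasites grown in NIH/3T3 mouse fibroblasts as host cells; luminescent beta-galactosidase reporter signal from transgenic T. cruzi replicating inside host cells; inhibitors lower the luminescence signal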
# [12] = NIH3T3 cell viability loss – ATP luminescence, mouse fibroblasts, counter-screen, dose response (AID 2010); type: functional, cell-based;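 further: cells exposed to compound for about 90 hours before reading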
smiles,measurement,setting,value
COc1ccc2oc(=O)c(-c3nc4ccccc4o3)cc2c1,EC50,[1],3.5 µM (active)
same,EC50,[2],17.2 µM (active)
same,EC50,[3],24.1 µM (active)
NC(=O)[C@H](Cc1cc2ccccc2s1)NC(=O)[C@@H]1CC2(CC(c3cccc(NC(=O)[C@@H]4CCC(=O)N4)c3)=NO2)CN1C(=O)/C=C/c1c(F)cccc1Cl (stereo not given in full),AC50,[4],20 µM (active)
same,EC50,[5],168 µM (active)
COc1ccc(CNC(=O)c2cc(-c3cc(C)cc(C)c3O)[nH]n2)cc1,CC50,[6],> 50 µM (active)
O=C1NC(=S)S/C1=C1\Sc2ccccc2N1CCCS(=O)(=O)O,IC50,[7],123 µM (active)
CC1CCCC2(C1)N=C(S)c1c(sc3c1CCCC3)N2 (stereo not given),EC50,[1],> 120 µM (not active)
same,EC50,[2],> 120 µM (not active)
same,EC50,[3],> 120 µM (not active)
O=C(Nc1ccc(O)cc1)c1cc2n(n1)C(C(F)(F)F)CC(c1ccco1)N2 (stereo not given),IC50,[7],27.7 µM (active)
O=C(O)c1cc(NN=C2CCN(Cc3ccccc3)CC2)ccc1Cl,EC50,[1],> 120 µM (not active)
same,EC50,[2],22.9 µM (active)
same,EC50,[3],18.7 µM (active)
Brc1ccc(C2=NC(Cc3ccccc3)CO2)cc1 (stereo not given),EC50,[1],3.58 µM (active)
same,EC50,[2],3.81 µM (active)
same,EC50,[3],7.48 µM (active)
COc1cccc(CN2CCN(Cc3cccc(Oc4ccccc4)c3)CC2)c1OC,IC50,[7],93.1 µM (active)
Cc1ccc(CNc2cnn(C34CC5CC(CC(C5)C3)C4)c(=O)c2Cl)cc1,AC50,[8],1.18 µM (active)
OCc1ccc[n+](/C(C([S-])=Nc2ccc(SC(F)F)cc2)=C(/O)c2ccc(Cl)s2)c1,EC50,[1],13.4 µM (active)
same,EC50,[2],14.2 µM (inconclusive)
same,EC50,[3],18.2 µM (active)
CCOc1ccccc1N(C(=O)Nc1ccc(Cl)cc1)C1=NCCS1,AC50,[8],5.46 µM (active)
COc1ccc(/C=C2/C(=O)N(c3ccccc3)N=C2C)cc1OC,AC50,[4],3.78 µM (active)
same,EC50,[5],1.46 µM (active)
O=C(Nc1ccc(O)cc1)c1ccccc1OCc1ccccc1,IC50,[7],30.1 µM (active)
CCO/C(O)=C1/Sc2ccccc2N=C1C,IC50,[7],53.5 µM (active)
Cc1ccc(-c2ccc(NC(=O)C3C4C=CC(C4)C3C(=O)O)cc2)o1 (stereo not given),EC50,[1],2.07 µM (active)
same,EC50,[2],33.5 µM (active)
same,EC50,[3],> 120 µM (not active)
CCOC(=O)C(=O)NNc1ccc(F)cc1,AC50,[8],0.837 µM (active)
Cc1ccccc1Nc1nc(N)nc(COC(=O)c2ccccc2)n1,EC50,[1],40.5 µM (active)
same,EC50,[2],25.1 µM (active)
same,EC50,[3],25.7 µM (active)
O=C(NCc1nnnn1-c1ccc(F)cc1)c1ccc([N+](=O)[O-])o1,EC50,[1],8.58 µM (active)
same,EC50,[2],> 60 µM (not active)
same,EC50,[3],29 µM (active)
same,CC50,[9],19.3 µM (active)
COc1cccc(OC)c1C(=O)N1CCN(Cc2ccc3c(c2)OCO3)CC1,IC50,[7],248 µM (active)
CN1C2=CC=CC=CC2=[N+](C)C12C([N+](=O)[O-])=CC(=[N+]([O-])[O-])C=C2[N+](=O)[O-] (stereo not given),EC50,[1],> 120 µM (not active)
same,EC50,[2],> 120 µM (not active)
same,EC50,[3],> 120 µM (not active)
Cc1ccc(Cn2nnc3c(O)nc(C4CCN(S(=O)(=O)c5ccccc5F)CC4)nc32)cc1,CC50,[6],22.2 µM (active)
COc1cc(C(=O)CSc2nnc(-c3ccc(O)cc3)n2CC2CCCO2)ccc1NC(C)=O (stereo not given),AC50,[4],> 380 µM (inactive)
same,EC50,[5],> 380 µM (inactive)
Cn1c(N)c(-c2nc3cccnc3n2C)sc1=S,EC50,[1],> 120 µM (not active)
same,EC50,[2],9.72 µM (active)
same,EC50,[3],> 120 µM (not active)
NC(=O)CC(NC(=O)Cc1ccc(Br)cc1)c1ccc(NC2CC3CCC2C3)c([N+](=O)[O-])c1 (stereo not given),AC50,[8],6.22 µM (active)
CC(=O)N(CCC(Cc1ccccc1)c1ccc2c(c1)OCO2)Cc1ccccc1F (stereo not given),AC50,[4],3.39 µM (active)
same,EC50,[5],5.78 µM (active)
Cc1nc(S(=O)(=O)N(C)Cc2ccccc2)c(C#N)c(C)c1Cl,EC50,[1],5.83 µM (active)
same,EC50,[2],60.4 µM (active)
same,EC50,[3],> 120 µM (not active)
Cc1ccc2c(c1)c1c(n2CC(O)CN2CCCCCC2)CCCC1 (stereo not given),AC50,[4],> 380 µM (inactive)
same,EC50,[5],> 380 µM (inactive)
O=C(CN1C(=O)S/C(=C\c2ccc(O)cc2)C1=O)c1ccccc1,EC50,[1],6.38 µM (active)
same,EC50,[2],6.77 µM (active)
same,EC50,[3],26 µM (active)
CCOc1cc(-c2cc(-c3ccc(N)cc3)nc(N)c2C#N)ccc1O,IC50,[10],> 79 µM (inactive)
same,IC50,[7],131 µM (active)
O=C(Nc1ccccc1Cl)Oc1ccc(-c2ccccc2)cc1,IC50,[7],11.3 µM (active)
O=C(CSCc1cc(O)n[nH]1)Nc1ccc(F)cc1,AC50,[4],4.04 µM (active)
same,EC50,[5],1.74 µM (active)
Cc1cc(NC(=O)/C=C/c2ccc(Cl)cc2)no1,AC50,[8],22.8 µM (active)
O=C(NCCCNC(=O)c1nc[nH]c1C(=O)Nc1cccc(Cl)c1)c1nc[nH]c1C(=O)Nc1cccc(Cl)c1,AC50,[8],3.78 µM (active)
same,IC50,[10],> 79 µM (inactive)
COc1ccc(S[C@@H](CCN2CC[C@H](NC(=O)OCc3ccccc3)CCC2=O)c2ccccc2)cc1,AC50,[8],3.09 µM (active)
CC(/C=N/n1c(S)nnc1C1CCCCC1)=C\c1ccccc1,CC50,[9],> 40 µM (active)
same,AC50,[8],4.26 µM (active)
Nc1nnnn1/N=C/c1cccc(Br)c1,CC50,[6],> 50 µM (active)
O=C(NNC(=O)c1ccc([N+](=O)[O-])o1)c1ccccc1,EC50,[11],0.13 µM (active)
same,EC50,[12],> 60 µM (not active)
same,AC50,[4],23.5 µM (active)
same,EC50,[5],13.5 µM (active)
